Like-named read-outs stand apart in the source and are kept apart here.
Tests used:
muscarinic receptors [1] = type: binding, Hooded Lister rats; settings: rat cerebral cortex; 0.27 nM 3H-QNB; 37° C., 30 min; E3 as hydrochloride salt, all others as oxalate salts
muscarinic receptors [2] = assay: Displacement of muscarinic agonist 3H-Oxotremorine-M (3H-OXO-M) binding, cerebral cortex membranes; set-up: species or system Hooded Lister rats; settings: rat cerebral cortex; 2 nM 3H-OXO-M; 37° C., 30 min; E3 as hydrochloride salt, all others as oxalate salts

SMILES	IC50 (muscarinic receptors [1]) [nM]	IC50 (muscarinic receptors [2]) [nM]
Nc1nncc(C2CN3CCC2C3)n1 (racemic) [E9a & E9b, (±) exo and endo 3-(3-Amino-1,2,4-triazin-5-yl) -1-azabicyclo[2.2.1]heptane]	320	1.1
Cc1nncc(C23CCN(CC2)C3)n1 [Example E3, 4-(3-Methyl-1,2,4-triazin-5-yl)-1-azabicyclo[2.2.1]heptane]	4400	70
Cc1nncc([C@@H]2CN3CC[C@@H]2C3)n1 (relative stereo) [Example E8a, 3-(3-Methyl-1,2,4-triazin-5-yl) -1-azabicyclo[2.2.1]heptane]	255	3.1
Nc1nncc(C23CCCN(CC2)C3)n1 (racemic) [Example E2, (±) 5-(3-Amino-l,2,4-triazin-5-yl)-1-azabicyclo[3.2.1]octane]	1110	5
Nc1nncc(C2CN3CCC2CC3)n1 (racemic) [Example E6, (±)3-(3-Amino-1,2,4-triazin-5-yl)-1-azabicyclo[2.2.2]octane]	2370	11
Cc1nncc(C23CCCN(CC2)C3)n1 (racemic) [Example E1, (±) 5-(3-Methyl-l,2,4-triazin-5-yl)-1-azabicyclo[3.2.1]octane]	1800	33
CCc1nncc([C@@H]2CN3CC[C@@H]2C3)n1 (relative stereo) [Example E10, (±) exo and endo 3-(3-Ethyl-1,2,4-triazin-5-yl) -1-azabicyclo[2.2.1]heptane]	240	68
Nc1nncc(C23CCN(CC2)C3)n1 [Example E4, 4-(3-Amino-1,2,4-triazin-5-yl)-1-azabicyclo[2.2.1]heptane]	1490	4
Cc1nncc(C2CN3CCC2CC3)n1 (racemic) [Example E7, (±) 3-(3-Methyl-1,2,4-triazin-5-yl)-1-azabicyclo[2.2.2]octane]	175	3.3
COc1nncc(C23CCN(CC2)C3)n1 [Example E5, 4-(3-Methoxy-1,2,4-triazin-5-yl)-1-azabicyclo[2.2.1]heptane]	14000	1100

From patent US5324724A (priority 1990, dated 1994)
